Experimental data published in ChEMBL document CHEMBL1782027, “Synthesis and evaluation of heterobivalent tacrine derivatives as potential multi-functional anti-Alzheimer agents” (Eur J Med Chem, 2011).
pIC50: −log10 of the molar value. Activity calls are given as the source filed them. No cut-off for these calls is given here.

Legend:
Acetylcholinesterase = Acetylcholinesterase (Electrophorus electricus, UniProt O42275)
Description: Inhibition of electric eel AChE assessed as inhibition of acetylthiocholine chloride substrate hydrolysis incubated for 15 mins before substrate addition measured by spectrophotometry

Cholinesterase = Cholinesterase (Equus caballus, UniProt P81908)
Description: Inhibition of equine serum BuChE assessed as inhibition of butyrylthiocholine chloride substrate hydrolysis incubated for 15 mins before substrate addition measured by spectrophotometry

[1] = Inhibition of amyloid beta (1 to 42) self-aggregation at 20 uM after 48 hrs by thioflavin T fluorescent dye assay
[2] = target: Acetylcholinesterase (Electrophorus electricus) (UniProt O42275); experiment: Binding affinity at electric eel AChE peripheral anionic site assessed as inhibition of acetylthiocholine chloride substrate hydrolysis incubated for 15 mins before substrate addition measured by spectrophotometry based Lineweaver-Burk plot analysis
[3] = target: Acetylcholinesterase (Electrophorus electricus) (UniProt O42275); experiment: Binding affinity at electric eel AChE catalytic active site assessed as inhibition of acetylthiocholine chloride substrate hydrolysis incubated for 15 mins before substrate addition measured by spectrophotometry based Lineweaver-Burk plot analysis

Acetylcholinesterase, sequence (O42275 whole entry): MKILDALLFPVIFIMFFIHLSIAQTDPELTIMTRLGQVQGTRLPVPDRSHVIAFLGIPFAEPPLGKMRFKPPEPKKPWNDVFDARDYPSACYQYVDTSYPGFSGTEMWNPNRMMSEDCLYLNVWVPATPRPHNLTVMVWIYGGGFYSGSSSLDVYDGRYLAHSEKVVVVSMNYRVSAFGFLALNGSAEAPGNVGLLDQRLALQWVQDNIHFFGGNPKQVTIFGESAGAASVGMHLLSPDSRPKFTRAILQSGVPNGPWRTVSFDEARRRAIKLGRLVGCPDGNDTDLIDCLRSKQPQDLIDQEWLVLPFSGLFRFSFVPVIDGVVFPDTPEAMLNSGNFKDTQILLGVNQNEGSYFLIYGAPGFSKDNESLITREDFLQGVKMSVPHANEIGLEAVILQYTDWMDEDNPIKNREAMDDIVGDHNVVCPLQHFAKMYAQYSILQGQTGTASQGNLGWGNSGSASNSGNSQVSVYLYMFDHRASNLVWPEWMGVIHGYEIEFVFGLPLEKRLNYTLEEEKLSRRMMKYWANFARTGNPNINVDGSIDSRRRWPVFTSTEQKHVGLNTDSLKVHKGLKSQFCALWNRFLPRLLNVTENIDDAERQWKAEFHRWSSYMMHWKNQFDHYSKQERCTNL
Cholinesterase, sequence (P81908 whole entry): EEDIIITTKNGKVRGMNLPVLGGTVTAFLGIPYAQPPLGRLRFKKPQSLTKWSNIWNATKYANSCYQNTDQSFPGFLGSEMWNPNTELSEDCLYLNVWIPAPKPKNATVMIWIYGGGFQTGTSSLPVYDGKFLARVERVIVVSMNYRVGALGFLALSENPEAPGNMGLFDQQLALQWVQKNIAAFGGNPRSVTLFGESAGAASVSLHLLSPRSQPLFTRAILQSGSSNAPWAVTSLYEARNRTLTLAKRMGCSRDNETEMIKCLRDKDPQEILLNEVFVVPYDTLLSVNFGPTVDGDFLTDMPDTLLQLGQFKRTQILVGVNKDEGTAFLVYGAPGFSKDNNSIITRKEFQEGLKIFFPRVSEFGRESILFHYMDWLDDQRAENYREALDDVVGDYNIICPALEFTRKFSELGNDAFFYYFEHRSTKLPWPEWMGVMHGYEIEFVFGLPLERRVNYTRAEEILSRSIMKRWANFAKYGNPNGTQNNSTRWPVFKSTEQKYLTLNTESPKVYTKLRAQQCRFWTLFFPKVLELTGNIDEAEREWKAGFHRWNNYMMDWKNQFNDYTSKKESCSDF
Acetylcholinesterase (Electrophorus electricus), sequence (O42275 24-633 limits assumed): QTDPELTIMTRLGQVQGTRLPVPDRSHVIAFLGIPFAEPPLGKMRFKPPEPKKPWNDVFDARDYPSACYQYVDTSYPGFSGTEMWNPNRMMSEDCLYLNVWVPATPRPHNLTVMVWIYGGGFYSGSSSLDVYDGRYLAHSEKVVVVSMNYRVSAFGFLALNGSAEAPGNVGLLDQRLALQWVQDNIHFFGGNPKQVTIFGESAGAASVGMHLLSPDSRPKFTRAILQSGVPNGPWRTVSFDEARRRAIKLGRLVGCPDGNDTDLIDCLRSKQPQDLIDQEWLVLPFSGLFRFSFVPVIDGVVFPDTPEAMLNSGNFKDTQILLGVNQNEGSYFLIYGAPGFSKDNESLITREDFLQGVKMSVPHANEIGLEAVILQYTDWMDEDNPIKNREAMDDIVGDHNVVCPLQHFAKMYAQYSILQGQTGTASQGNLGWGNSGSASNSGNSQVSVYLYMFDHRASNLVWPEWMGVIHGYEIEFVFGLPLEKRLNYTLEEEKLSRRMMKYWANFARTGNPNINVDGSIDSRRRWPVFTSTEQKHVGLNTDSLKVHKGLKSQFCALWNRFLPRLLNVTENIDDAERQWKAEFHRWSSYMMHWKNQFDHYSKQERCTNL

Compound | pIC50 (Acetylcholinesterase) | pIC50 (Cholinesterase) | inhibition [1] | inhibition [2] | inhibition [3]
O=C(NCCCCCCCCNc1c2c(nc3ccccc13)CCCC2)c1ccncc1 | 7.41 | 7.41 |  |  | 
COc1ccc(CNCCCCCCCCNc2c3c(nc4ccccc24)CCCC3)cc1 | 7.82 | 8.32 |  |  | 
COc1ccc(CNCCCCNc2c3c(nc4ccccc24)CCCC3)cc1OC | 6.44 | 7.43 | Active |  | 
c1ccc2c(NCCCCCCCCNCc3ccc4c(c3)OCO4)c3c(nc2c1)CCCC3 | 8.21 | 8.46 |  |  | 
Oc1ccc(CNCCCCCCNc2c3c(nc4ccccc24)CCCC3)cc1 | 7.59 | 8.12 |  |  | 
COc1ccc(CNCCCCCNc2c3c(nc4ccccc24)CCCC3)cc1OC | 6.98 | 7.61 |  |  | 
COc1cc(CNCCCCCCCCNc2c3c(nc4ccccc24)CCCC3)ccc1O | 8.34 | 8.47 | 71% | Active | Active
Oc1cccc(CNCCCCCCCCNc2c3c(nc4ccccc24)CCCC3)c1 | 7.82 | 8.31 |  |  | 
COc1ccc(CNCCCCCCNc2c3c(nc4ccccc24)CCCC3)cc1OC |  |  | Active |  | 
COc1cc(/C=C/C(=O)CC(=O)/C=C/c2ccc(O)c(OC)c2)ccc1O |  |  | 50% |  | 
COc1cc(CNCCCCCCNc2c3c(nc4ccccc24)CCCC3)ccc1O | 7.36 | 8.03 |  |  | 
Oc1ccccc1CNCCCCCCCCNc1c2c(nc3ccccc13)CCCC2 | 7.90 | 7.99 |  |  | 
c1ccc2c(NCCCCCCCCNCc3ccncc3)c3c(nc2c1)CCCC3 | 8.33 | 8.33 |  |  | 
COc1cc(CNCCCCCCCCNc2c3c(nc4ccccc24)CCCC3)cc(OC)c1O | 8.34 | 8.39 |  |  | 
Oc1ccc(CNCCCCCCCCNc2c3c(nc4ccccc24)CCCC3)cc1 | 8.13 | 8.27 |  |  | 
